Laboratory results taken from patent publication US20150232856A1, “TELOMERASE INHIBITORS FOR USE IN THERAPY” (AGENCY FOR SCIENCE, TECHNOLOGY AND RESEARCH, priority 2012, published 2015).

Columns and labels:
Format in all cases: cell-based, human
[1] = test system: A2780cp cells; test: Colony formation assay; conditions: 2 μM MST312 for 2 weeks, partially rescued by ectopic expression of p65 (FIG. 7F-G)
Method: F. Colony formation assay: A2780cp cells were infected with p65 expressing or GFP (Cntrl) virus followed by plating 1000 cells per condition. The cells were then treated with 2 μM MST312 or DMSO control for 2 weeks followed by staining with crystal violet after 12 days. Number of colonies was counted from duplicate plates.

[2] = test system: NFκB signalling; test: NFκB signalling immunoblot in telomerase null VA13 cells; conditions: 2 μM MST-312 24 hrs, then 10 ng/ml TNFα time course (FIG. 12A)
Method: VA13 cells were treated with 2 μM MST-312 or DMSO for 24 hrs followed by stimulation with 10 ng/ml TNFα for the indicated durations.
A. Phosphorylated and total amounts of proteins were analysed by immunoblotting for the indicated proteins over the time course.
Total protein was extracted with Totex buffer (20 mM Hepes at pH 7.9, 0.35 M NaCl, 20% glycerol, 1% NP-40, 1 mM MgCl2, 0.5 mM EDTA, 0.1 mM EGTA, 50 mM NaF and 0.3 mM NaVO3) containing a mixture of protease inhibitors (Roche). Immunoblotting was performed with specific antibodies and visualized using ECL western blotting detection kit (Amersham Bioscience).

[3] = test system: p65; test: TNFα stimulated nuclear translocation of p65 (nuclear fractions, immunoblot); conditions: HeLa cells, 2 μM MST-312 or si-hTERT, 48 hrs, 10 ng/ml TNFα 30 min (FIG. 17A)
Method: A. HeLa cells were treated with 2 μM MST-312 (lanes 3-4), DMSO (lanes 1-2) or transfected with si-hTERT, si-Cntrl (Lanes 5-8) or infected with TT, Cntrl virus (Lanes 9-12) as indicated. 48 hrs later, cells were stimulated with 10 ng/ml TNFα for 30 min followed by fractionation of nuclear and cytosolic fractions.
The cells were harvested in ice-cold PBS and resuspended in hypotonic lysis buffer (10 mM HEPES pH7.9, 1.5 mM MgCl2, 10 mM KCl, protease and phosphatse inhibitors) and incubated on ice for 4 min. They were, then spun down for 3 min at 4500 rpm and the cytoplasmic fraction aspirated to separate tubes. The pellet was washed with hypotonic buffer once. The nuclear fraction was then lysed in IP lysis (10 mM Tris at pH 8, 170 mM NaCl, 0.5% NP40 and protease inhibitors) buffer on ice for 30 min. The lysate was clarified by centrifugation and 1 mg of each fraction was used for corresponding IP reactions.

[4] = test system: IL6; test: IL6 expression in primary leukemia cells from patients; conditions: primary leukemic cells from AML, ALL or CML patients; MST-312 0.5 μM 48 hours vs DMSO (FIG. 6G)
Method: G. IL6 expression in primary patient samples after treatment with 0.5μ MST-312 for 48 hrs. Expression levels are shown as percentage expression of IL6 in MST-312 treated samples compared to the matched DMSO treatment for each individual patient line (X-axis). ND—not detectable.
Total RNA was isolated using RNeasy Kit (Qiagen) according to the manufacturer's instructions. cDNA was prepared from 1-2 μg of RNA Superscript Vilo reverse transcriptase (Invitrogen). Real-time PCR reactions were performed in duplicates using SYBR GreenER (Invitrogen) according to the manufacturer's instructions. Cycles for SYBR GreenER PCRs: 7.5 min at 95° C. for the initial denaturation, followed by 40 cycles of 95° C. for 15 s and 60° C. for 30 s. Primer sequences are set out in the following Table:
Bone marrow blast cells (>90%) from newly diagnosed leukemia patients were obtained at National University Hospital in Singapore. Primary leukemia cells were cultured in IMDM with 10% of fetal bovine serum (FBS), FLT3 ligand (20 ng/ml), SCF (20 ng/ml), IL-3 (20 ng/ml), G-CSF (50 ng/ml), TPO (50 ng/ml) and 1% Penicillin/Streptomycin in a humid incubator with 5% CO2 at 37° C. All the human cytokines were purchased from Peprotech (Rocky Hill, N.J.). […]

**Q.** `O=C(Nc1cccc(NC(=O)c2cccc(O)c2O)c1)c1cccc(O)c1O` [MST-312, N,N′-1,3-Phenylenebis-[2,3-dihydroxy-benzamide]] was tested. Which colony formation [1] did it give?
**A.** The colony formation was “phenocopied the results of hTERT knockdown”.

**Q.** What about the “p65 phosphorylation or IκBα degradation” value [2] of the same molecule?
**A.** The value was “No changes”.

**Q.** And the “TNFα stimulated nuclear translocation of p65” value [3]?
**A.** Its value is “did not affect”.

**Q.** And the “samples in which the levels of IL6 were significantly reduced” value [4]?
**A.** The value was “more than 80%”.
